Laboratory results: patent US8716242B2, “β-hairpin peptidomimetics” (priority 2009, dated 2014)
Numbered stars: 1 amine (or outer) side, 2 acyl side, 3 side chain; on linkers, the order of the positions; unused ones are H or OH. Bridge positions count the residues as written; N and C are the ends. Square brackets hold non-standard residues; d marks the D form. Side chains are listed from the residue outwards. Peptide text beside a SMILES is read from it. * marks the point of attachment. γGlu = O=C(O)[C@H](CCC(=O)[*:2])N[*:1]; Palmitoyl = CCCCCCCCCCCCCCCC(=O)*; Myristoyl = CCCCCCCCCCCCCC(=O)*; Lauroyl = CCCCCCCCCCCC(=O)*; Dab = NCC[C@H](N)C(=O)O

Columns and labels:
[1] = Plasma stability in mouse plasma; type: in vitro ADME; conditions: mouse plasma, 37° C.; for remaining at 24 h, 10 μM: 1440 min, read-out: mouse pl. cpd left at 1440 min
In short: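 Peptides (1 mM DMSO/H2O stock) were spiked into human or mouse plasma in triplicate and incubated at 37 °C, sampling from 0 to 1440 min. Samples were quenched in formic acid/acetonitrile and analysed by LC/MS MRM. Remaining percent of t=0 was calculated and T1/2 derived by trend fitting.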

[2] = Cytotoxicity, MTT reduction assay, HELA cells; type: cell-based; conditions: human, HELA cells (Acc57), 12.5-50 μM
In short: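 HELA (4000/well) and COS-7 (3400/well) cells were grown 24 h, then exposed 48 h at 37° C to peptides at 12.5, 25 and 50 μM in triplicate. MTT reduction read at 595 nm; growth % relative to time-zero, and GI50 interpolated by trend line.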

[3] = target: T1, human CXCR4 (Homo sapiens, UniProt P61073); assay: Ca2+-assay: CXCR4-antagonizing activity (SDF-1 induced calcium mobilization); type: cell-based; conditions: mouse pre-B cell line 300-19 transfected with human CXCR4; SDF-1 induced Ca2+ mobilization; read-out: IC50% [nM] ± SD, CXCR4 receptor
T1 construct: expressed in transfected cells; host or cells: mouse pre-B cell line 300-19
In short: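 Mouse pre-B 300-19 cells stably expressing human CXCR4, loaded with Calcium 4 dye in HBSS/20 mM HEPES pH 7.4/0.1% BSA for 1 h at RT. Peptides added before SDF-1; fluorescence (ex 485/em 525 nm) followed for 90 s. IC50 from four-parameter logistic fit of % maximal SDF-1 response.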

T1 sequence (P61073 whole entry): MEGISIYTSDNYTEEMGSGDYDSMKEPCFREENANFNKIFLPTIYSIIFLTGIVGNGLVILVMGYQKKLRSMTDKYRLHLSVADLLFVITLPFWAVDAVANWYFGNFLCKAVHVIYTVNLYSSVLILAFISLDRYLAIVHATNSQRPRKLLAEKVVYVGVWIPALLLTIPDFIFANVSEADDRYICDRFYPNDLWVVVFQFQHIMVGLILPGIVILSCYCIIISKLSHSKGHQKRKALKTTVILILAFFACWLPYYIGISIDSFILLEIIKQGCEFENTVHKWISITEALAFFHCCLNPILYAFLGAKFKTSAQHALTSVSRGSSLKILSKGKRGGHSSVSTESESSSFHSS

Structure (SMILES) | remaining at 24 h, 10 μM [1] [%] | half-life at 10 μM ([1]; up to 1440 min, read-out: mouse pl. T1/2) [h] | GI50 at 48 h [2] [nM] | IC50 [3] [nM] | mouse pl. T1/2 ([1]; up to 1440 min) [h]
CCCCCCCCCCCC(=O)NCCCC[C@@H]1NC(=O)[C@H](Cc2ccc(O)cc2)NC(=O)[C@@H]2CSSC[C@H](NC(=O)[C@H](C)NC(=O)[C@H](Cc3c[nH]cn3)NC(=O)[C@H](Cc3ccc(O)cc3)NC(=O)[C@@H]3CCCN3C(=O)[C@H]3CCCN3C(=O)[C@H](CCCCN)NC1=O)C(=O)N[C@@H](CCCNC(=N)N)C(=O)N[C@@H](C)C(=O)N1CCC[C@@H]1C(=O)N[C@@H](CCN)C(=O)N[C@@H](CCCNC(=N)N)C(=O)N[C@@H](Cc1ccc(O)cc1)C(=O)N2 [Ex. 17] (cyclo(YHACRA[dP][Dab]RYCYK(Lauroyl)K[dP]P); disulfide 4-11) | 59 | 19.5 | > 44000 | 2.8 ± 0.4 | –
CCCCCCCCCCCCCCCC(=O)NCCCC[C@@H]1NC(=O)[C@H](Cc2ccc(O)cc2)NC(=O)[C@@H]2CSSC[C@H](NC(=O)[C@H](Cc3ccc(O)cc3)NC(=O)[C@H](Cc3c[nH]cn3)NC(=O)[C@H](Cc3ccc(O)cc3)NC(=O)[C@@H]3CCCN3C(=O)[C@H]3CCCN3C(=O)[C@H](CCCCN)NC1=O)C(=O)N[C@@H](CO)C(=O)N[C@@H](C)C(=O)N1CCC[C@@H]1C(=O)N[C@@H](CCN)C(=O)N[C@@H](CCCNC(=N)N)C(=O)N[C@@H](Cc1ccc(O)cc1)C(=O)N2 [Ex. 20] (cyclo(YHYCSA[dP][Dab]RYCYK(Palmitoyl)K[dP]P); disulfide 4-11) | 83 | – | > 31000 | 4 ± 1.8 | 24
CCCCCCCCCCCC(=O)N[C@@H](CCC(=O)NCCCC[C@@H]1NC(=O)[C@H](Cc2ccc(O)cc2)NC(=O)[C@@H]2CSSC[C@H](NC(=O)[C@H](Cc3ccc(O)cc3)NC(=O)[C@H](Cc3c[nH]cn3)NC(=O)[C@H](Cc3ccc(O)cc3)NC(=O)[C@@H]3CCCN3C(=O)[C@H]3CCCN3C(=O)[C@H](CCCCN)NC1=O)C(=O)N[C@@H](CO)C(=O)N[C@@H](C)C(=O)N1CCC[C@@H]1C(=O)N[C@@H](CCN)C(=O)N[C@@H](CCCNC(=N)N)C(=O)N[C@@H](Cc1ccc(O)cc1)C(=O)N2)C(=O)O [Ex. 25] (cyclo(YHYCSA[dP][Dab]RYCYK([γGlu-Lauroyl])K[dP]P); disulfide 4-11) | 74 | – | > 43000 | 3.5 ± 0.1 | 24
CCCCCCCCCCCC(=O)N[C@@H](CCC(=O)NCCCC[C@@H]1NC(=O)[C@H](Cc2ccc(O)cc2)NC(=O)[C@@H]2CSSC[C@H](NC(=O)[C@H](C)NC(=O)[C@H](Cc3c[nH]cn3)NC(=O)[C@H](Cc3ccc(O)cc3)NC(=O)[C@@H]3CCCN3C(=O)[C@H]3CCCN3C(=O)[C@H](CCCCN)NC1=O)C(=O)N[C@@H](CCCNC(=N)N)C(=O)N[C@@H](C)C(=O)N1CCC[C@@H]1C(=O)N[C@@H](CCN)C(=O)N[C@@H](CCCNC(=N)N)C(=O)N[C@@H](Cc1ccc(O)cc1)C(=O)N2)C(=O)O [Ex. 26] (cyclo(YHACRA[dP][Dab]RYCYK([γGlu-Lauroyl])K[dP]P); disulfide 4-11) | 65 | – | > 50000 | 2.4 ± 0.5 | 24
CCCCCCCCCCCCCC(=O)N[C@@H](CCC(=O)NCCCC[C@@H]1NC(=O)[C@H](Cc2ccc(O)cc2)NC(=O)[C@@H]2CSSC[C@H](NC(=O)[C@H](Cc3ccc(O)cc3)NC(=O)[C@H](Cc3c[nH]cn3)NC(=O)[C@H](Cc3ccc(O)cc3)NC(=O)[C@@H]3CCCN3C(=O)[C@H]3CCCN3C(=O)[C@H](CCCCN)NC1=O)C(=O)N[C@@H](CO)C(=O)N[C@@H](C)C(=O)N1CCC[C@@H]1C(=O)N[C@@H](CCN)C(=O)N[C@@H](CCCNC(=N)N)C(=O)N[C@@H](Cc1ccc(O)cc1)C(=O)N2)C(=O)O [Ex. 28] (cyclo(YHYCSA[dP][Dab]RYCYK([γGlu-Myristoyl])K[dP]P); disulfide 4-11) | 78 | – | > 39000 | 2.1 ± 0.1 | 24
CCCCCCCCCCCCCCCC(=O)N[C@@H](CCC(=O)NCCCC[C@@H]1NC(=O)[C@H](Cc2ccc(O)cc2)NC(=O)[C@@H]2CSSC[C@H](NC(=O)[C@H](Cc3ccc(O)cc3)NC(=O)[C@H](Cc3c[nH]cn3)NC(=O)[C@H](Cc3ccc(O)cc3)NC(=O)[C@@H]3CCCN3C(=O)[C@H]3CCCN3C(=O)[C@H](CCCCN)NC1=O)C(=O)N[C@@H](CO)C(=O)N[C@@H](C)C(=O)N1CCC[C@@H]1C(=O)N[C@@H](CCN)C(=O)N[C@@H](CCCNC(=N)N)C(=O)N[C@@H](Cc1ccc(O)cc1)C(=O)N2)C(=O)O [Ex. 29] (cyclo(YHYCSA[dP][Dab]RYCYK([γGlu-Palmitoyl])K[dP]P); disulfide 4-11) | 53 | – | > 47000 | 1.9 ± 0.8 | 24
